Test results published in US11214805B2, “Targeted nanocarriers for the administration of immunosuppressive agents” (MUSC FOUNDATION FOR RESEARCH DEVELOPMENT, priority 2014, dated 2022).

How the values were obtained:
MHC I = experiment: Western blot of MHC I in lysates of HUVEC treated with pro-inflammatory cytokine cocktail; type: cell-based, Human; conditions: IL-1β, INFγ, TNFα cocktail; 10 or 100 ng/mL
Experimental: Cells were then lysed using mammalian protein extraction reagent (Pierce, Ill.) supplemented with Halt Protease and Phosphatase Inhibitor Cocktails. Lysates were centrifuged at 10,000 rpm for 15 minutes. All western blot reagents were purchased from Bio-Rad (CA) unless specified. The protein concentration of each lysate was determined via Bradford calorimetric Assay (Thermo Scientific, PA; 232225), and 1.6 μg of protein from each whole cell lysate was added to a 4-20% precast gel and subjected to SDS-page electrophoresis. Protein was transferred to a PVDF membrane by semi-dry transfer, where it was stained with anti-MHC class I antibody (W6) and blocked overnight with TBS-T (Tris-Buffered Saline-Tween 20) containing 5% nonfat dry milk and 0.5% BSA. An appropriate HRP-conjugated secondary antibody was added to fresh block solution at a 1:1000 dilution to incubate for 1 hour at room temperature. The protein band was then detected by enhanced chemiluminescence (ECL).

[1] = tested on: transplanted tracheas (chronic rejection); conditions: graft stored 4 hrs at 4° C. in UW solution with additive; harvested 28 days after transplantation
Description: Twenty eight days later transplanted tracheas were harvested and assessed for the degree of chronic rejection.

## CO[C@H]1C[C@@H]2CC[C@@H](C)[C@@](O)(O2)C(=O)C(=O)N2CCCC[C@H]2C(=O)O[C@H]([C@H](C)C[C@@H]2CC[C@@H](O)[C@H](OC)C2)CC(=O)[C@H](C)/C=C(\C)[C@@H](O)[C@@H](OC)C(=O)[C@H](C)C[C@H](C)/C=C/C=C/C=C/1C [free rapamycin, rapamycin]
MHC I
  level of MHC I expression in HUVEC: able to down regulate
[1]
  degree of chronic rejection (fibrosis, inflammation, epithelium) as compared to UW alone: reduced fibrosis, inflammation and preserved normal pseudo stratified respiratory epithelium
